From patent US20080221128A1, “Metalloprotease inhibitors containing a squaramide moiety” (priority 2007, published 2008) come the findings set out here.

Holding throughout (assay type): biochemical
The target in one assay is T1, MMP-13 (Homo sapiens, UniProt P45452).
T1 construct: stock solution of catalytic domain of MMP-13 enzyme (produced by Alantos or commercially available from Invitek (Berlin), Cat.# 30100812); purchased Invitek (Berlin) 30100812
The experiment in a line: Assay for determining MMP-13 inhibition (fluorescent substrate). The note with it: catalytic domain of MMP-13; for pIC50: upper bound class, read-out: MMP-13 inhibition activity (IC50 MMP-13). The procedure:
The typical assay for MMP-13 activity is carried out in assay buffer comprised of 50 mM Tris, pH 7.5, 150 mM NaCl, 5 mM CaCl2 and 0.05% Brij-35. Different concentrations of tested compounds are prepared in assay buffer in 50 μL aliquots. 10 μL of a 50 nM stock solution of catalytic domain of MMP-13 enzyme (produced by Alantos or commercially available from Invitek (Berlin), Cat.# 30100812) is added to the compound solution. The mixture of enzyme and compound in assay buffer is thoroughly mixed and incubated for 10 min at room temperature. Upon the completion of incubation, the assay is started by addition of 40 μL of a 12.5 μM stock solution of MMP-13 fluorescent substrate (Calbiochem, Cat. No. 444235). The time-dependent increase in fluorescence is measured at the 320 nm excitation and 390 nm emission by automatic plate multireader. The IC50 values are calculated from the initial reaction rates.

The target in a further assay is T2, MMP-8 (Homo sapiens, UniProt P22894).
T2 construct: purchased Calbiochem 444229
T2 sequence (P22894 101-467): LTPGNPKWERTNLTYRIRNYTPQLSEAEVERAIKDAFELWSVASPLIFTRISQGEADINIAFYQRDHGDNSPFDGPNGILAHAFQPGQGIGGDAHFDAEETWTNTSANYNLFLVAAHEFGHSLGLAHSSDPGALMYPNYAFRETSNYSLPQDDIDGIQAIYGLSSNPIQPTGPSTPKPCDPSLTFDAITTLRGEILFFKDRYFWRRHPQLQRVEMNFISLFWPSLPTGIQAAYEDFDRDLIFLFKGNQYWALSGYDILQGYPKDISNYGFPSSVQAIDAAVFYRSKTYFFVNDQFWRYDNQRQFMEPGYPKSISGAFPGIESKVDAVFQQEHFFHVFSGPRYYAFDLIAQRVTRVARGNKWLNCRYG
The experiment in a line: Assay for determining MMP-8 inhibition (fluorescent substrate). The note with it: activated MMP-8 enzyme; upper bound class. The procedure: The typical assay for MMP-8 activity is carried out in assay buffer comprised of 50 mM Tris, pH 7.5, 150 mM NaCl, 5 mM CaCl2 and 0.05% Brij-35. Different concentrations of tested compounds are prepared in assay buffer in 50 μL aliquots. 10 μL of a 50 nM stock solution of activated MMP-8 enzyme (Calbiochem, Cat. No. 444229) is added to the compound solution. The mixture of enzyme and compound in assay buffer is thoroughly mixed and incubated for 10 min at 37° C. Upon the completion of incubation, the assay is started by addition of 40 μL of a 10 μM stock solution of OmniMMP fluorescent substrate (Biomol, Cat. No. P-126). The time-dependent increase in fluorescence is measured at the 320 nm excitation and 390 nm emission by an automatic plate multireader at 37° C. The IC50 values are calculated from the initial reaction rates.

The target in the next assay is T3, MMP-3 (Homo sapiens, UniProt P08254).
T3 construct: stock solution of the catalytic domain of MMP-3 enzyme (Biomol, Cat. No. SE-109); purchased Biomol SE-109
T3 sequence (P08254 100-272 limits assumed): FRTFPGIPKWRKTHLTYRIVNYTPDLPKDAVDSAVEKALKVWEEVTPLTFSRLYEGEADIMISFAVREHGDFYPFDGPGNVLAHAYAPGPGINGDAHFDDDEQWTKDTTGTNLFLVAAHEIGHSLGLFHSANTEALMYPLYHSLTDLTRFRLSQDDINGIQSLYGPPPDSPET
The experiment in a line: Assay for determining MMP-3 inhibition (fluorescent substrate). To be noted: catalytic domain of MMP-3; for pIC50: upper bound class, read-out: MMP-3 inhibition activity (IC50 MMP-3). The procedure:
The typical assay for MMP-3 activity is carried out in assay buffer comprised of 50 mM MES, pH 6.0, 10 mM CaCl2 and 0.05% Brij-35. Different concentrations of tested compounds are prepared in assay buffer in 50 μL aliquots. 10 μL of a […] stock solution of the catalytic domain of MMP-3 enzyme (Biomol, Cat. No. SE-109) is added to the compound solution. The mixture of enzyme and compound in assay buffer is thoroughly mixed and incubated for 10 min at room temperature. Upon the completion of incubation, the assay is started by addition of 40 μL of a 12.5 μM stock solution of NFF-3 fluorescent substrate (Calbiochem, Cat. No. 480-455). The time-dependent increase in fluorescence is measured at the 330 nm excitation and 390 nm emission by an automatic plate multireader. The IC50 values are calculated from the initial reaction rates.

pIC50: −log10 of the molar value. Like-named read-outs stand apart in the source and are kept apart here.

As usually defined, the pIC50 is −log10 of the IC50, conventionally taken in molar units. With `Nc1c(N2CCc3ccc(CNC(=O)c4nc5sc6c(c5c(=O)[nH]4)CCC4(C6)OCCO4)cc3C2)c(=O)c1=O` [1/8], the negative logarithm of the IC50 (pIC50) was greater than 7.00 at MMP-13, greater than 6.60 at MMP-8 and greater than 6.60 at MMP-3.

Consider `Cc1nc(C(=O)NCc2ccc3c(c2)CN(c2c(N)c(=O)c2=O)CC3)[nH]c(=O)c1C` [Example 1/2], for which the pIC50 on MMP-13 was greater than 7.00.

With `Cc1csc2nc(C(=O)NCc3ccc4c(c3)CN(c3c(N)c(=O)c3=O)CC4)[nH]c(=O)c12` [Example 1/3], the pIC50 on MMP-13 is greater than 7.00; against MMP-8, greater than 6.60; at MMP-3, greater than 6.60.

The IC50 is the concentration that gives 50% inhibition. For the molecule `Nc1c(N2CCc3ccc(CNC(=O)c4ncc(-c5ccc(F)cc5)c(=O)[nH]4)cc3C2)c(=O)c1=O` [Example 1], the concentration for half-maximal inhibition (IC50) at MMP-13 (range bounds printed with own units (nM to μM), read-out: MMP-13 inhibition activity (IC50 MMP-13), range) lay in the range of 100 to 20000 nM; on MMP-3 (range bounds printed with own units (nM to μM), read-out: MMP-3 inhibition activity (IC50 MMP-3), range), 250 to 20000 nM.
